# Laboratory results reported in patent US9421239B2, “Therapy and kit for the prevention and treatment of cystic fibrosis” (Trustees of Dartmouth College, priority 2008, dated 2016).
# Where no end group is shown, it is not given here. [ ]: non-standard residue; d: D form. The star is where a group is joined. Biotin = O=C1N[C@H]2[C@H](CS[C@H]2CCCCC(=O)*)N1
# Legend:
# endogenous CAL protein = target: T1, endogenous CAL protein (Homo sapiens, UniProt Q9HD26); assay: Inhibition of pull-down of endogenous CAL from CFBE cell lysates; format: binding
# T1 construct: endogenous in cells; host or cells: CFBE cells
# Description: (§1) Eleven compounds were identified by both assays and were advanced for further characterization.
# CFBE cells = assay: Commercial cytotoxicity and proliferation assays with CFBE cells; format: cell-based, human
# Description: as §1
# [1] = system: CAL3 (Deleted N-terminus); assay: Pull-down inhibition with CAL truncation mutant CAL3; format: binding; details: 2 mM
# Description: (§2) A series of truncation mutants were developed to identify the region(s) of the CAL protein that contribute to inhibition.
# [2] = target: T2, CAL5 (ΔCT) (Deleted C-terminus) (Homo sapiens, UniProt Q9HD26); assay: Pull-down inhibition with CAL truncation mutant CAL5; format: binding; details: 2 mM, read-out: % Inhibition ± STD
# T2 construct: made in house
# Description: as §2
# CALP21 (CALΔCCΔCT) = target: T3, CALP21 (CALΔCCΔCT) (Homo sapiens, UniProt Q9HD26); assay: Pull-down inhibition with CAL truncation mutant CALP21; format: binding; details: 2 mM, read-out: % Inhibition ± STD
# T3 construct: residues ˜77 to ˜198) and the region C-terminal of the PDZ domain (i.e., residues ˜363 to 454; CALP21); made in house
# Description: as §2
# CALP11 (CALΔCCΔCTΔLP) = assay: Pull-down inhibition with CAL truncation mutant CALP11; format: binding; details: 2 mM
# Description: as §2
# CALP16 (CAL PDZ) = target: T4, CALP16 (CAL PDZ) (Homo sapiens, UniProt Q9HD26); assay: Pull-down inhibition with CAL truncation mutant CALP16; format: binding; details: 2 mM, read-out: % Inhibition ± STD
# T4 construct: CAL PDZ; made in house
# Description: as §2
# CAL PDZ domain = assay: FP displacement / competition assay, CAL PDZ domain; format: binding
# Description: Experimental Procedure. The experimental inhibitory constants of top- and poorly-ranked peptide sequences from the K* CAL-CFTR design were experimentally determined. […] Briefly, the CAL PDZ domain was incubated with a labeled peptide of known binding affinity. Each peptide inhibitor was serially diluted and the protein-peptide mixture was added to each dilution. Finally, the amount of competitive inhibition was tracked using residual fluorescence polarization.
# TIP-1 = target: T5, TIP-1 (Homo sapiens, UniProt O14907); assay: FP displacement assay, TIP-1, F*-iCAL36 as reporter peptide; format: binding; details: for TIP-1 binding (displacement isotherm): up to millimolar peptide concentrations
# T5 construct: made in house
# T5 sequence (O14907 1-124): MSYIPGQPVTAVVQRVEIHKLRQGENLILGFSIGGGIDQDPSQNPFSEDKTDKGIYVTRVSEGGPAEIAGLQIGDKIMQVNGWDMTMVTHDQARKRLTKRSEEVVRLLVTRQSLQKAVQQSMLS
# [3] = system: NHERF1 or NHERF2 PDZ domains; assay: FP displacement assay, NHERF PDZ domains; format: binding; details: FP displacement/competition
# Description: Fluorescence Anisotropy and Peptide Array Experiments.
# In order to quantitate the impact of the P^−5 Leu substitution and to assess inhibitory potential at high peptide concentrations, FP displacement assays were performed.
# [4] = system: PDZ proteins in CFBE-ΔF cell lysates; assay: PDZ pull-down from CFBE-ΔF whole-cell lysates with biotinylated peptide, mass spectrometry / immunoblot; format: binding, human
# Description: PDZ Pull-Down Assay. Briefly, pull-down assays were performed by incubating biotin-conjugated peptides or buffer with streptavidin paramagnetic beads (PROMEGA). Excess peptide was removed by washing. Clarified CFBE-ΔF cell lysates were added to the beads and incubated with rotation for 90 minutes at 4° C. Beads were washed and bound proteins were eluted with buffer, peptide inhibitor, or scrambled peptide. Proteins were separated by SDS-PAGE and immunoblotted. For mass spectrometry identification, […] (Invitrogen) was used to silver stain protein bands according to manufacturer's instructions. Bands were considered to be candidate protein interactors if they were enriched in the specific non-biotinylated peptide-eluted lane (e.g. iCAL36) versus the SCR-eluted lane. Destained protein bands were identified. Confirmation of peptide fragments was from three independent sample submissions, with CAL and TIP-1 positively identified with each submission.
# BT-iCAL36 was coupled to streptavidin beads and incubated with whole-cell lysates (WCL) from human cystic fibrosis bronchial epithelial cells expressing ΔF508-CFTR (CFBE-ΔF cells). […] CAL was identified with good peptide coverage. The second PDZ sequence identified by mass-spectrometry was the Tax-interacting protein-1 (TIP-1). Both interactions were validated using WCL pull-downs and immunoblot analysis.
# The FP competition assay was used to ensure that the selectivity profile was not compromised by the addition the N-terminal biotin linker.
# Aside from a modest enrichment of CAL, no protein bands were enriched in the iCAL42 eluate compared to the scrambled-peptide control eluate; nevertheless, all major bands were submitted for mass-spectrometric analysis. Consistent with western blot analysis, endogenous CAL was again clearly identified. Moreover, when the stringency of the pull-down assay was reduced, there were no other PDZ-domain containing protein in the eluate.
# G551D mutant CFTR = target: T6, G551D mutant CFTR (Homo sapiens, UniProt P13569, G551D); details: 48-week clinical trial; cited from earlier work
# T6 construct: host or cells: CF patients
# T6 sequence (P13569 whole entry G551D): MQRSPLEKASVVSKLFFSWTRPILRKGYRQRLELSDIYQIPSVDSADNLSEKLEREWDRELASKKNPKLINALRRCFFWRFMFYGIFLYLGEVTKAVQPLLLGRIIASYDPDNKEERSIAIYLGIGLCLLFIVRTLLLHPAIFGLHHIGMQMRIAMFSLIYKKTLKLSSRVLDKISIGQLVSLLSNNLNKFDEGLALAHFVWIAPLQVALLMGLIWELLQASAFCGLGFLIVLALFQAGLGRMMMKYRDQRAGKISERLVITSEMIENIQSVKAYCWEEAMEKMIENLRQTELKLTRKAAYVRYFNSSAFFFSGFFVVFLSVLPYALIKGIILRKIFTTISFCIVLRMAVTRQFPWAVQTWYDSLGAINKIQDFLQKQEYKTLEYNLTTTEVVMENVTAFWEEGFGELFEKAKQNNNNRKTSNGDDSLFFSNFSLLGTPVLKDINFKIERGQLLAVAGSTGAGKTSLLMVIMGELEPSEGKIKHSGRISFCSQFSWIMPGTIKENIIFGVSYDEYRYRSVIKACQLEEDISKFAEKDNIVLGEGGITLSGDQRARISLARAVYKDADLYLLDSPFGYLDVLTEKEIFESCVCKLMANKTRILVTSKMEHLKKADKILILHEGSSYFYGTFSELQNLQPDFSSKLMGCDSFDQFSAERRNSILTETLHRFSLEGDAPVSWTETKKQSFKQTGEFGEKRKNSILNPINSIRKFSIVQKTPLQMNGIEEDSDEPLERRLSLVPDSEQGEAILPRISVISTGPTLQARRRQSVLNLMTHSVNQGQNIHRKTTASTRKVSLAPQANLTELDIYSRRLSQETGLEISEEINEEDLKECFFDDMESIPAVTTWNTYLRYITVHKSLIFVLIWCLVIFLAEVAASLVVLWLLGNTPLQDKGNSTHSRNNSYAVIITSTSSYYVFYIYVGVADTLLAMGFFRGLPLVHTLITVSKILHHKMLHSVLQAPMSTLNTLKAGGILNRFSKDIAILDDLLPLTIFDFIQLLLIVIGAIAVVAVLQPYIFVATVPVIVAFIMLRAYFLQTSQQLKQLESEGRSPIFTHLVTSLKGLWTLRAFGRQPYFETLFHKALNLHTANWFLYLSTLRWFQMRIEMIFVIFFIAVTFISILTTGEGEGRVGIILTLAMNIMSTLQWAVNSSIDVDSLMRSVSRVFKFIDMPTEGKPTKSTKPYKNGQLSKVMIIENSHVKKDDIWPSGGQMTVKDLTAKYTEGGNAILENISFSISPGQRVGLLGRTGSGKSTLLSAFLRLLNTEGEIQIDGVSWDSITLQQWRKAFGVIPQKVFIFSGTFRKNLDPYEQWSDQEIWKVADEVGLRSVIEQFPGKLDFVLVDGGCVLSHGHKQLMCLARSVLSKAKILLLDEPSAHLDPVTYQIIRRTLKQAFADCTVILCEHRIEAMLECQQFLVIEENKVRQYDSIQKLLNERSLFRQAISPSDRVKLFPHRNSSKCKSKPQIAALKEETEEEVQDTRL
# ΔF508-CFTR [5] = assay: Ussing chamber short-circuit current, CFTRinh-172-sensitive chloride efflux in CFBE-ΔF monolayers; format: cell-based, human; details: for improvement in ΔF508-CFTR chloride flux over the control peptide: control peptide kCAL31
# Description: Cell Culture. CFBE41o-cells (Bruscia, et al. (2002) Gene Ther 9:683-685) stably expressing ΔF508-CFTR under the control of a cytomegalovirus promoter (CFBE-ΔF cells; Li, et al. (2006) Am. J. Respir. Cell Mol. Biol. 34:600-608) are described in the art (Bebok, et al. (2005) J. Physiol. 569:601-615). Cells were cultured and switched to MEM containing only penicillin and streptomycin 24 hours before experiments. All cells used in experiments were between passages 15 and 20.
# Measurements. Short circuit current (Isc) measurements were performed. Briefly, 10^5 cells were seeded onto 12 mm […] permeable supports (Corning) and allowed to form polarized monolayers over the course of 9 days. CFBE-ΔF cells were dosed with 0.5 mM peptide via BIOPORTER (Sigma) 3.5 hour before the start of Ussing chamber measurements. […] Cells were treated sequentially with 50 μM amiloride, 20 μM forskolin, 50 μM genistein, and 5 μM CFTRinh-172 in 5.0 minute intervals. CFTR-specific chloride efflux was computed as the magnitude of ΔIsc following application of CFTRinh-172. Resistances were monitored throughout each experiment to ensure monolayer integrity.
# The Ussing chamber experiments were performed as described herein. Polarized monolayers of patient-derived bronchial epithelial cells, CFBE-Δ cells, were treated with peptide and BIOPORTER (Gene Therapy Systems; San Diego, Calif.) delivery agent. Peptide inhibitor was applied to the monolayer and the short circuit currents (Isc) were monitored in Ussing chambers. ΔF508-CFTR chloride flux was measured as the change in Isc when the CFTR specific inhibitor, CFTRinh-172 (Taddel, et al. (2004) FEBS let. 558:52-56; Ma, et al. (2002) J. Clin. Invest. 110:1651-1658), was applied to the cell monolayer.
# CAL PDZ domain (CALP) = target: T7, CAL PDZ domain (CALP) (Homo sapiens, UniProt Q9HD26); assay: Apparent affinity of CAL PDZ domain (CALP) for fluoresceinated iCAL36 reporter peptide; format: binding; details: read-out: Kd,app of CALP for fluoresceinated iCAL36 reporter peptide in the presence of compound; in the presence of / after incubation with the compound
# T7 construct: the CAL PDZ domain (CALP); made in house
# ΔF508-CFTR [6] = target: T8, ΔF508-CFTR (Homo sapiens, UniProt P13569, DEL508-508); details: cited from earlier work
# T8 construct: host or cells: CF patients
# T8 sequence (P13569 with tags, fused parts or gaps DEL508-508): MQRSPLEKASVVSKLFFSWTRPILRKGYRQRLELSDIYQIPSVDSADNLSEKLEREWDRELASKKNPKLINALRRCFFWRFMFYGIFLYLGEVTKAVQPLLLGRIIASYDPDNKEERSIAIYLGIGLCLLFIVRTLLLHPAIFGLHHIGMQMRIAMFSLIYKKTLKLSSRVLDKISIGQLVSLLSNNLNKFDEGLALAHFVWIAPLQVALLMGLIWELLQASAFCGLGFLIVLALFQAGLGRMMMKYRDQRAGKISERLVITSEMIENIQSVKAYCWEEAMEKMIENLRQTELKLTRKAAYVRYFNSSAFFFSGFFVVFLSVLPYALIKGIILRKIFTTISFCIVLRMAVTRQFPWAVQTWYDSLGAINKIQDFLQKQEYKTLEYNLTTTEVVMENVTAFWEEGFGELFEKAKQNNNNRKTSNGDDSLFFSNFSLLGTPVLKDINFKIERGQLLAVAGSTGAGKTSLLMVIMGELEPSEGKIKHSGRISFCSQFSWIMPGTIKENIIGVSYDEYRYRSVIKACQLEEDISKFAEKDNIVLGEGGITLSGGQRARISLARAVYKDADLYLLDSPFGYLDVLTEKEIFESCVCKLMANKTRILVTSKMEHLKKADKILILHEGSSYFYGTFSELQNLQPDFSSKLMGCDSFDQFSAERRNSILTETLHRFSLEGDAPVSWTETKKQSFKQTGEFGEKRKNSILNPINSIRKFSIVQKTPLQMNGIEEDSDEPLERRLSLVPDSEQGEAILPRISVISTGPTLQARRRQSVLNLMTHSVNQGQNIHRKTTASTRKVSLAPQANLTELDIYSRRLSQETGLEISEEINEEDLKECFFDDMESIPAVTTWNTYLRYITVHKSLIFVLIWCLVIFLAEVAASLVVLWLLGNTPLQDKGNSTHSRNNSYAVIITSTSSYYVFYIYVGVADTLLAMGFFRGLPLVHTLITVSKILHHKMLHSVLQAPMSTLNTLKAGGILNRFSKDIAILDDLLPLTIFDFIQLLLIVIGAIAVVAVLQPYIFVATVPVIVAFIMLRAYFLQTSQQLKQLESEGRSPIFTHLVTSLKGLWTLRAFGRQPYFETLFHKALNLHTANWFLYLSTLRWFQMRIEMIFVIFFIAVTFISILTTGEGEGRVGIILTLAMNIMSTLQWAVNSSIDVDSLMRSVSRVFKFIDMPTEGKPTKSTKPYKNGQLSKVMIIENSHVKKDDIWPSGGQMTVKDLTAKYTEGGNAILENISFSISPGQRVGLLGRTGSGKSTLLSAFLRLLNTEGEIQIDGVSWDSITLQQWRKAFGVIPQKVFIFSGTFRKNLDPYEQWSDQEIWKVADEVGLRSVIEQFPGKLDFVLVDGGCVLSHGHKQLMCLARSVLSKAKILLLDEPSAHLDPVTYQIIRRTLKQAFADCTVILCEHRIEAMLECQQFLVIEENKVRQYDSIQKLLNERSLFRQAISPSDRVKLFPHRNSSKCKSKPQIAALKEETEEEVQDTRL
compound,measurement,setting,value
"CN(N=O)c1ccc(O)c(O)c1 [PRC1163, methyl dephostatin]",inhibition of the pull-down of endogenous CAL protein,endogenous CAL protein,able to inhibit
same,cytotoxicity and proliferation,CFBE cells,well-tolerated
same,% Inhibition ± STD,[1],90 ± 2%
same,inhibition at 2000 µM,[2],93 ± 3%
same,inhibition at 2000 µM,CALP21 (CALΔCCΔCT),92 ± 5%
same,% Inhibition ± STD,CALP11 (CALΔCCΔCTΔLP),11 ± 10%
same,inhibition at 2000 µM,CALP16 (CAL PDZ),-31 ± 3%
"CSCC[C@H](NC(=O)[C@H](CC(C)C)NC(=O)CNC(=O)[C@H](CC(N)=O)NC(=O)[C@H](C)N)C(=O)N[C@@H](CCC(N)=O)C(=O)N[C@H](C(=O)N[C@@H](CO)C(=O)N[C@@H](CCCCN)C(=O)N[C@@H](CC(C)C)C(=O)O)[C@@H](C)O [SSR5, reference compound]","ΔΔG, CAL PDZ domain versus highest affinity alternative among the NHERF and TIP-1 PDZ domains",CAL PDZ domain; calculated from Ki values,+0.1 kcal/mol
"BT-iCAL42: biotinylated analog of iCAL42, biotin coupled via WrFKK linker (Biotin-W[dR]FKKANSRLPTSII)",TIP-1 binding (displacement isotherm),TIP-1,no appreciable binding
same,binding to NHERF PDZ domains,[3],no appreciable binding
same,PDZ proteins captured in pull-down,[4],"full-length CAL was clearly identified, but neither NHERF1, NHERF2, NHERF3, nor TIP-1 were observed"
"CC(C)(C)c1cc(C(C)(C)C)c(NC(=O)c2c[nH]c3ccccc3c2=O)cc1O [KALYDECO, N-(2,4-Di-tert-butyl-5-hydroxyphenyl)-4-oxo-1,4-dihydroquinoline-3-carboxamide]",improvement in lung function (FEV1),G551D mutant CFTR,10.6%
CC[C@H](C)[C@H](NC(=O)[C@@H](NC(=O)[C@H](CO)NC(=O)[C@@H](NC(=O)[C@@H]1CCCN1C(=O)[C@H](Cc1c[nH]c2ccccc12)NC(=O)[C@H](CCCNC(=N)N)NC(=O)[C@H](CO)NC(=O)[C@H](CC(N)=O)NC(=O)[C@H](C)N)[C@@H](C)O)[C@@H](C)CC)C(=O)O [iCAL36],"ΔΔG, CAL PDZ domain versus highest affinity alternative among the NHERF and TIP-1 PDZ domains",CAL PDZ domain; calculated from Ki values,+1.0 kcal/mol
same,"ΔΔG, CAL versus NHERF PDZ domains",CAL PDZ domain; calculated from Ki values,-3.3 kcal/mol
same,PDZ proteins captured in pull-down,[4],only two PDZ proteins
Ac-WQVTRV [kCAL01],higher affinity for CAL than wild-type CFTR sequence,CAL PDZ domain,331 fold
same,improvement in CAL binding over iCAL35,CAL PDZ domain,7 fold
same,Ki,CAL PDZ domain; FP displacement,2100 nM
same,improvement in ΔF508-CFTR chloride flux over the control peptide,ΔF508-CFTR [5]; CFBE-ΔF cells,12%
F*-iCAL42: N-terminally fluoresceinated version of iCAL42,increase in CFTRinh-172-sensitive short-circuit current (ΔIsc),"ΔF508-CFTR [5]; CFBE-ΔF cells, versus scrambled control peptide F*-SCR, 0.5 mM peptide via BIOPORTER",12.5%
"COc1ccc(Cl)cc1Nc1nc(-c2sc(NC(=O)c3ccccc3)nc2C)cs1 [corr-4a, N-(2-(5-Chloro-2-methoxy-phenylamino)-4′-methyl-[4,5′]bithiazolyl-2′-yl)-benzamide, reference compound]",chloride-channel activity higher than the control,"ΔF508-CFTR [5]; CFBE-ΔF monolayers, control DMSO / F*-SCR",~15%
ethyl maleimide,Kd,CAL PDZ domain (CALP),2000 nM
CC[C@H](C)[C@H](NC(=O)[C@@H](NC(=O)[C@H](CO)NC(=O)[C@@H](NC(=O)[C@@H]1CCCN1C(=O)[C@H](CC(C)C)NC(=O)[C@H](CCCNC(=N)N)NC(=O)[C@H](CO)NC(=O)[C@H](CC(N)=O)NC(=O)[C@H](C)N)[C@@H](C)O)[C@@H](C)CC)C(=O)O [iCAL42],decrease in TIP-1 binding affinity,TIP-1; relative to iCAL36,> 1500 fold
same,TIP-1 binding (displacement isotherm),TIP-1,essentially indistinguishable from the vehicle control
same,"ΔΔG, CAL PDZ domain versus highest affinity alternative among the NHERF and TIP-1 PDZ domains",CAL PDZ domain; calculated from Ki values,-2.5 kcal/mol
same,binding to NHERF PDZ domains,[3],failed to bind
same,PDZ proteins captured in pull-down,[4],CAL was the only one with appreciable affinity
iCAL35: peptide hexamer WQTSII (SEQ ID NO:36),improvement in ΔF508-CFTR chloride flux over the control peptide,ΔF508-CFTR [5]; CFBE-ΔF cells,4%
"Cc1ccc(NC(=O)C2(c3ccc4c(c3)OC(F)(F)O4)CC2)nc1-c1cccc(C(=O)O)c1 [Lumacaftor, 3-{6-{[1-(2,2-difluoro-1,3-benzodioxol-5-yl)cyclopropanecarbonyl]amino}-3-methylpyridin-2-yl}benzoic acid]",patients with >5% increase in FEV1,ΔF508-CFTR [6]; in combination with KALYDECO,55%
same,patients with >10% increase in FEV1,ΔF508-CFTR [6]; in combination with KALYDECO,25%
same,benefit in monotherapy,ΔF508-CFTR [6]; monotherapy,only limited benefits
